Source: paper PMC9919591, “New Triazine Derivatives as Serotonin 5-HT6 Receptor Ligands” (Molecules, 2023)

Columns and labels:
human 5-HT2AR = biological target: T1, human 5-HT2AR (Homo sapiens, UniProt P28223); test: Radioligand binding assay, 5-HT2AR ([3H]-ketanserin); settings: CHO-K1 cells stably expressing human 5-HT2AR
T1 construct: expressed in transfected cells; host or cells: CHO-K1
Description: (§1) Affinity for serotonin 5-HT2A, 5-HT7 and dopamine D2 receptors (D2R) as protein off-targets was evaluated in the radioligand binding assays. In CHO-K1 cells, it was stably expressed human 5-HT2AR, whereas human 5-HT7R and D2R were stably expressed in HEK293 cells. […] A particularly weak affinity towards this receptor was shown through compounds of series 1 (compounds 1–7) and series 2 (compounds 8–13). […]. Radioligand binding assays were used to determine the affinity of the synthesized compounds for human serotonin 5-HT6R, 5-HT2AR, 5-HT7R and dopamine D2R, which were stably expressed in HEK293 cells or CHOk1 cells (5-HT2AR). This was done as described previously.

HepG2 cells = test: Hepatotoxicity, MTS assay on HepG2 cells; assay type: cell-based, human
Description: Some substances can lead to liver damage. To eliminate this risk, hepatotoxicity tests are carried out as early as the pre-clinical development phase. One of the methods commonly used to assess the adverse effect of tested compounds on cell viability is the MTT assay, and the most popular cell lines are HepG2 and HepaRG (the human hepatocellular carcinoma cells). To evaluate the toxic effect of compound 3, the MTS assay (one-step MTT assay variant) was performed on the HepG2 cells. HepG2 cells were incubated with increasing concentrations (0.78–50 µM) of compound 3 for 48 h. After that time, the MTS reagent was added and incubated for 1 h. Next the absorbance was read at 490 nm.
The hepatoma cell line HepG2 (ATCC® HB-8065TM) was used to assess the hepatotoxicity of the compounds according to previously described protocols. The CellTiter 96® AQueous Non-Radioactive Cell Proliferation Assay was purchased from Promega (Madison, WI, USA). Compound 3 was tested in two independent experiments in triplicate at seven concentrations (0.78, 1.56, 3.125, 6.25, 12.5, 25 and 50 µM) for […].

human D2R = biological target: T2, human D2R (Homo sapiens, UniProt P14416); test: Radioligand binding assay, D2R ([3H]-raclopride); settings: HEK293 cells stably expressing human D2R
T2 construct: expressed in transfected cells; host or cells: HEK293
T2 sequence (P14416 whole entry): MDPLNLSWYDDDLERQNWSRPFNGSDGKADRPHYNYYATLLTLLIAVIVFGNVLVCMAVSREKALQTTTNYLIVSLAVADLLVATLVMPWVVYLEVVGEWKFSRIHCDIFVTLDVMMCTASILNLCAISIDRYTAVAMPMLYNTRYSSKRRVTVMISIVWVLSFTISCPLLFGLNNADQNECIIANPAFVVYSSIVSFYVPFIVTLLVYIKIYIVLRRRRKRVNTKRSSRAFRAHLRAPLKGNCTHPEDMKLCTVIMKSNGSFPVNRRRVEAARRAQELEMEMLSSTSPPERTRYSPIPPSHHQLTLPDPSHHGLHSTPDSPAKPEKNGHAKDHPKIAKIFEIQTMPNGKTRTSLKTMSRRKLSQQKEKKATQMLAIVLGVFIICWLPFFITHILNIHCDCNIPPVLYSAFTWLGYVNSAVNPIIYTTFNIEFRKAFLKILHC
Description: as §1

human 5-HT7R = biological target: T3, human 5-HT7R (Homo sapiens, UniProt P34969); test: Radioligand binding assay, 5-HT7R ([3H]-5-CT)
T3 construct: expressed in transfected cells; host or cells: HEK293
T3 sequence (P34969 whole entry): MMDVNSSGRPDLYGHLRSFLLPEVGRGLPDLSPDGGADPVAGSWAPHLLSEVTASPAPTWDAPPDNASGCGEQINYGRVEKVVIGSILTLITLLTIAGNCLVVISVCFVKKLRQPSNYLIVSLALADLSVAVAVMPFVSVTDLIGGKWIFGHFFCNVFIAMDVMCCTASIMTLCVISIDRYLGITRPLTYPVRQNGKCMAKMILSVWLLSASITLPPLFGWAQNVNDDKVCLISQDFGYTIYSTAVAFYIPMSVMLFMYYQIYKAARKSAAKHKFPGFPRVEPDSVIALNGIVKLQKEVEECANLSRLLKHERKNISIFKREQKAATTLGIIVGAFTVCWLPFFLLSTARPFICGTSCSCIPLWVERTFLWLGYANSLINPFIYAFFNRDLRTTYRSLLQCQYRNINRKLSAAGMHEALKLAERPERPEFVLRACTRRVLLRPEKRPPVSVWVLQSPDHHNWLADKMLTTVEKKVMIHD
Description: as §1

[1] = PAMPA assay (BBB penetration, passive transport); assay type: in vitro ADME; settings: study a
From the text: This test is a very popular method for assessing BBB penetration via passive transport.

human 5-HT6R = biological target: T4, human 5-HT6R (Homo sapiens, UniProt P50406); test: Radioligand binding assay, 5-HT6R ([3H]-LSD); settings: [3H]-LSD; HEK293 cells stably expressing human 5-HT6R; average of at least two independent experiments
T4 construct: expressed in transfected cells; host or cells: HEK293
T4 sequence (P50406 whole entry): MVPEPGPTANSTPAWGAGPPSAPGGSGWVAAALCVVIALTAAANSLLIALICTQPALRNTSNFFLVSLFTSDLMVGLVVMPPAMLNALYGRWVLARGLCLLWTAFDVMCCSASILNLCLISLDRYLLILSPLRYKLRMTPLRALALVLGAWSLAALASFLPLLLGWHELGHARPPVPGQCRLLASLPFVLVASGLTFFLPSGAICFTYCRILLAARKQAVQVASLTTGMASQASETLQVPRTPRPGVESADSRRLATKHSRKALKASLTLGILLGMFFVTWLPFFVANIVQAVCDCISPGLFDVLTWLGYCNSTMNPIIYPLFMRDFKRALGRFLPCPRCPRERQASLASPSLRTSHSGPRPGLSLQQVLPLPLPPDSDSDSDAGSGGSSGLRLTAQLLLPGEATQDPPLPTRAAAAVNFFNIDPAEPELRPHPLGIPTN
Description: The affinity of compounds (1–25) for 5-HT6R was evaluated in the radioligand binding assay in HEK293 cells stably expressing human 5-HT6R. [^3H]-LSD as a radioligand was used. […] All results are collected in Table 1, Table 2 and Table 3.
Radioligand binding assays were used to determine the affinity of the synthesized compounds for human serotonin 5-HT6R, 5-HT2AR, 5-HT7R and dopamine D2R, which were stably expressed in HEK293 cells or CHOk1 cells (5-HT2AR). This was done as described previously.

T1 sequence (P28223 whole entry): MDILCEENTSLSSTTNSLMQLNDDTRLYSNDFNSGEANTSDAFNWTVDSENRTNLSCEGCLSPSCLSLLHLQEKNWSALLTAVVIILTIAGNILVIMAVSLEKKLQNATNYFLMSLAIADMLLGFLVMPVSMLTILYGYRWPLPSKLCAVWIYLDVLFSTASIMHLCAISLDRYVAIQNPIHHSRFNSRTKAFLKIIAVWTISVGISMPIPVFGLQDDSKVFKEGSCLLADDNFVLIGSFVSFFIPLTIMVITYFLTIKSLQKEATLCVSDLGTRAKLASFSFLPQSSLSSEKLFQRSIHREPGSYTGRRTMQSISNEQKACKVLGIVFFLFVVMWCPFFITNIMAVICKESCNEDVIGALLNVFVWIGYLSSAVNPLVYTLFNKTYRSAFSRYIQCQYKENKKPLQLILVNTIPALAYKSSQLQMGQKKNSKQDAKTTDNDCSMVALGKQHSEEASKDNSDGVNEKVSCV

With `CN1CCN(c2nc(N)nc(COc3ccccc3C(C)(C)C)n2)CC1` [Compound 3, 4-((2-(tert-Butyl)phenoxy)metyl)-6-(4-methylpiperazin-1-yl)-1,3,5-triazin-2-amine] the Ki (human 5-HT2AR) was 2.18 µM, the “hepatotoxicity (conclusion in words)” value (HepG2 cells; HepG2, MTS assay) was “moderate hepatotoxicity” and the IC50 (HepG2 cells; Homo sapiens, HepG2, MTS assay, 0.78–50 µM, 48 h incubation (72 h elsewhere in the source), read-out: IC50 (HepG2 cells' viability)) was 46.6 µM. For the same compound, the Ki (human D2R) was 1.62 µM, the Ki (human 5-HT7R; HEK293 cells stably expressing human 5-HT7R) was 6.34 µM and the Ki (human 5-HT7R; compound 3 and its salts) was 6.34 µM. For the same compound, the melting point was 107 to 109 °C, the “Pe ± SD” value [1] was 4.7 ×10⁻⁶ cm/s and the Papp ([1]; read-out: Pe ± SD) was 4.7 ± 0.2 ×10⁻⁶ cm/s. For the same compound, the Ki (human 5-HT6R) was 0.013 µM.
